Data: PubChem BioAssay AID2060619 (Molecular Pharmacology Branch, DTP, NCI, 2025)

Tested on: 323965-272-R-J2-PDC complex spheroid viability
Assay: Anticancer human tumor 323965-272-R-J2-PDC patient-derived pancreatic carcinoma cell line growth inhibition [CLK]
Details: for IC50: curve of first compound; for viability, T/C: stronger effect = lower value
In short: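 Patient-derived tumor cells grown as complex spheroids with HUVEC endothelial cells and mesenchymal stem cells, treated with drug combinations. Concentrations descend in half-log steps from near clinical Cmax, or from 10 microM if Cmax unknown.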
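Further: spheroids exposed to agents for seven days before readout.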
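Wherever viability, T/C is given: percent of DMSO vehicle control wells so 100% = untreated growth.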

## CC(C)CC(NC(=O)C(Cc1ccccc1)NC(=O)c1cnccn1)B(O)O (centres undefined) + CN1CCN(c2cc(C(=O)Nc3cc4cc(-c5cnn(C)c5)ccc4cn3)ccn2)CC1
Second compound 0.0316 µM
  IC50: 4.13 nM
Second compound 0.1 µM
  IC50: 4.13 nM
Second compound 0.316 µM
  IC50: < 0.949 nM
Second compound 1 µM
  IC50: < 0.949 nM
Second compound 3.16 µM
  IC50: < 0.949 nM
Second compound 10 µM
  IC50: < 0.949 nM
Second compound 0.0316 µM, first compound 0.000949 µM
  viability, T/C: 102%
Second compound 0.0316 µM, first compound 0.003 µM
  viability, T/C: 67.1%
Second compound 0.0316 µM, first compound 0.00949 µM
  viability, T/C: 5.27%
Second compound 0.0316 µM, first compound 0.03 µM
  viability, T/C: 0.67%
Second compound 0.0316 µM, first compound 0.0949 µM
  viability, T/C: 0.27%
Second compound 0.0316 µM, first compound 0.3 µM
  viability, T/C: 0.2%
Second compound 0.1 µM, first compound 0.000949 µM
  viability, T/C: 70.2%
Second compound 0.1 µM, first compound 0.003 µM
  viability, T/C: 67.7%
Second compound 0.1 µM, first compound 0.00949 µM
  viability, T/C: 4.08%
Second compound 0.1 µM, first compound 0.03 µM
  viability, T/C: 0.54%
Second compound 0.1 µM, first compound 0.0949 µM
  viability, T/C: 0.24%
Second compound 0.1 µM, first compound 0.3 µM
  viability, T/C: 0.21%
Second compound 0.316 µM, first compound 0.000949 µM
  viability, T/C: 27.6%
Second compound 0.316 µM, first compound 0.003 µM
  viability, T/C: 27.3%
Second compound 0.316 µM, first compound 0.00949 µM
  viability, T/C: 2.6%
Second compound 0.316 µM, first compound 0.03 µM
  viability, T/C: 0.27%
Second compound 0.316 µM, first compound 0.0949 µM
  viability, T/C: 0.18%
Second compound 0.316 µM, first compound 0.3 µM
  viability, T/C: 0.3%
Second compound 1 µM, first compound 0.000949 µM
  viability, T/C: 5.63%
Second compound 1 µM, first compound 0.003 µM
  viability, T/C: 1.53%
Second compound 1 µM, first compound 0.00949 µM
  viability, T/C: 0.21%
Second compound 1 µM, first compound 0.03 µM
  viability, T/C: 0.19%
Second compound 1 µM, first compound 0.0949 µM
  viability, T/C: 0.2%
Second compound 1 µM, first compound 0.3 µM
  viability, T/C: 1.89%
Second compound 3.16 µM, first compound 0.000949 µM
  viability, T/C: 5.74%
Second compound 3.16 µM, first compound 0.003 µM
  viability, T/C: 2.25%
Second compound 3.16 µM, first compound 0.00949 µM
  viability, T/C: 1.98%
Second compound 3.16 µM, first compound 0.03 µM
  viability, T/C: 0.31%
Second compound 3.16 µM, first compound 0.0949 µM
  viability, T/C: 0.19%
Second compound 3.16 µM, first compound 0.3 µM
  viability, T/C: 2.14%
Second compound 10 µM, first compound 0.000949 µM
  viability, T/C: 4.58%
Second compound 10 µM, first compound 0.003 µM
  viability, T/C: 2.17%
Second compound 10 µM, first compound 0.00949 µM
  viability, T/C: 0.45%
Second compound 10 µM, first compound 0.03 µM
  viability, T/C: 0.32%
Second compound 10 µM, first compound 0.0949 µM
  viability, T/C: 5.38%
Second compound 10 µM, first compound 0.3 µM
  viability, T/C: 2.98%

## O=C(c1cc(Cc2n[nH]c(=O)c3ccccc23)ccc1F)N1CCN(C(=O)C2CC2)CC1 + CN1CCN(c2cc(C(=O)Nc3cc4cc(-c5cnn(C)c5)ccc4cn3)ccn2)CC1
Second compound 0.0316 µM
  IC50: > 10000 nM
Second compound 0.1 µM
  IC50: > 10000 nM
Second compound 0.316 µM
  IC50: < 31.6 nM
Second compound 1 µM
  IC50: < 31.6 nM
Second compound 3.16 µM
  IC50: < 31.6 nM
Second compound 10 µM
  IC50: < 31.6 nM
Second compound 0.0316 µM, first compound 0.0316 µM
  viability, T/C: 91.1%
Second compound 0.0316 µM, first compound 0.1 µM
  viability, T/C: 93.4%
Second compound 0.0316 µM, first compound 0.316 µM
  viability, T/C: 87.4%
Second compound 0.0316 µM, first compound 1 µM
  viability, T/C: 102%
Second compound 0.0316 µM, first compound 3.16 µM
  viability, T/C: 93.5%
Second compound 0.0316 µM, first compound 10 µM
  viability, T/C: 80.2%
Second compound 0.1 µM, first compound 0.0316 µM
  viability, T/C: 70.6%
Second compound 0.1 µM, first compound 0.1 µM
  viability, T/C: 81.2%
Second compound 0.1 µM, first compound 0.316 µM
  viability, T/C: 68.7%
Second compound 0.1 µM, first compound 1 µM
  viability, T/C: 64.8%
Second compound 0.1 µM, first compound 3.16 µM
  viability, T/C: 65.6%
Second compound 0.1 µM, first compound 10 µM
  viability, T/C: 56.2%
Second compound 0.316 µM, first compound 0.0316 µM
  viability, T/C: 23.2%
Second compound 0.316 µM, first compound 0.1 µM
  viability, T/C: 26.9%
Second compound 0.316 µM, first compound 0.316 µM
  viability, T/C: 22.6%
Second compound 0.316 µM, first compound 1 µM
  viability, T/C: 26.6%
Second compound 0.316 µM, first compound 3.16 µM
  viability, T/C: 24.9%
Second compound 0.316 µM, first compound 10 µM
  viability, T/C: 26.9%
Second compound 1 µM, first compound 0.0316 µM
  viability, T/C: 4.07%
Second compound 1 µM, first compound 0.1 µM
  viability, T/C: 7.03%
Second compound 1 µM, first compound 0.316 µM
  viability, T/C: 3.28%
Second compound 1 µM, first compound 1 µM
  viability, T/C: 3.68%
Second compound 1 µM, first compound 3.16 µM
  viability, T/C: 3.67%
Second compound 1 µM, first compound 10 µM
  viability, T/C: 3.82%
Second compound 3.16 µM, first compound 0.0316 µM
  viability, T/C: 5.15%
Second compound 3.16 µM, first compound 0.1 µM
  viability, T/C: 4.92%
Second compound 3.16 µM, first compound 0.316 µM
  viability, T/C: 4.78%
Second compound 3.16 µM, first compound 1 µM
  viability, T/C: 4.57%
Second compound 3.16 µM, first compound 3.16 µM
  viability, T/C: 5.09%
Second compound 3.16 µM, first compound 10 µM
  viability, T/C: 7.05%
Second compound 10 µM, first compound 0.0316 µM
  viability, T/C: 4.14%
Second compound 10 µM, first compound 0.1 µM
  viability, T/C: 5.28%
Second compound 10 µM, first compound 0.316 µM
  viability, T/C: 5.97%
Second compound 10 µM, first compound 1 µM
  viability, T/C: 4.83%
Second compound 10 µM, first compound 3.16 µM
  viability, T/C: 4.72%
Second compound 10 µM, first compound 10 µM
  viability, T/C: 6.29%
